Measurements reported in patent US20030212102A1, “Novel solid dispersion compositions” (priority 2002, published 2003).
In brackets after ≈: the same amount, converted by molar mass.

Assay: Solubility and dissolution in simulated gastric fluid, USP Apparatus 2, non-sink conditions
Format: physicochemical
Settings: simulated gastric fluid without enzymes, 37 °C, thermodynamic from solid; simulated gastric fluid without enzyme, pH 1.2; read-out: in vitro solubility
Procedure: Physical matrix mixtures and melted carriers were made and tested to compare the baseline solubility and background absorbance to that of the solid dispersions. The resultant solid dispersion were yellow-orange hard solids with some air pockets formed by the cooling process. The dispersion solubility and dissolution rate were analyzed by USP Apparatus 2 dissolution. The dissolution was performed under the following conditions: SGF dissolution media, 0.1 M HCL without enzymes pH 1.2; non-sink conditions of 350-370 mL media; paddle speed of 50 rpm; temperature of 37° C.; 10 mL sample pull not replaced. Analysis of the (S)-(−)-N-(α-Ethylbenzyl)-3-hydroxy-2-phenylquinoline-4-carboxamide was performed using a UV spectrophotometer at 359 nm compared to standard solutions.

solubility: 31 µg/mL (≈ 81.1 µM)
Compound: CC[C@H](NC(=O)c1c(O)c(-c2ccccc2)nc2ccccc12)c1ccccc1 [(S)-(−)-N-(α-Ethylbenzyl)-3-hydroxy-2-phenylquinoline-4-carboxamide]
